pIC50: −log10 of the molar value. ≈ marks a conversion by molar mass, not a printed value.
Assays:
[1] = SUPPLEMENTARY: PAMPA permeability assay; format: physicochemical; conditions: read-out: Permeability
[2] = SUPPLEMENTARY: Lipophilicity (log D) Determination by high-throughput shake-flask; format: physicochemical; conditions: octanol/water
[3] = SUPPLEMENTARY: Lyophilisation Solubility Assay (LYSA); format: physicochemical; conditions: read-out: Kinetic_solubility
[4] = target: T1, Carnitine O-palmitoyltransferase 1, muscle isoform (Homo sapiens, UniProt Q92523); test: SUPPLEMENTARY: Inhibition of Carnitine palmitoyltransferase 1, muscle isoform; parameters: species or system Muscle tissue
T1 sequence (Q92523 whole entry): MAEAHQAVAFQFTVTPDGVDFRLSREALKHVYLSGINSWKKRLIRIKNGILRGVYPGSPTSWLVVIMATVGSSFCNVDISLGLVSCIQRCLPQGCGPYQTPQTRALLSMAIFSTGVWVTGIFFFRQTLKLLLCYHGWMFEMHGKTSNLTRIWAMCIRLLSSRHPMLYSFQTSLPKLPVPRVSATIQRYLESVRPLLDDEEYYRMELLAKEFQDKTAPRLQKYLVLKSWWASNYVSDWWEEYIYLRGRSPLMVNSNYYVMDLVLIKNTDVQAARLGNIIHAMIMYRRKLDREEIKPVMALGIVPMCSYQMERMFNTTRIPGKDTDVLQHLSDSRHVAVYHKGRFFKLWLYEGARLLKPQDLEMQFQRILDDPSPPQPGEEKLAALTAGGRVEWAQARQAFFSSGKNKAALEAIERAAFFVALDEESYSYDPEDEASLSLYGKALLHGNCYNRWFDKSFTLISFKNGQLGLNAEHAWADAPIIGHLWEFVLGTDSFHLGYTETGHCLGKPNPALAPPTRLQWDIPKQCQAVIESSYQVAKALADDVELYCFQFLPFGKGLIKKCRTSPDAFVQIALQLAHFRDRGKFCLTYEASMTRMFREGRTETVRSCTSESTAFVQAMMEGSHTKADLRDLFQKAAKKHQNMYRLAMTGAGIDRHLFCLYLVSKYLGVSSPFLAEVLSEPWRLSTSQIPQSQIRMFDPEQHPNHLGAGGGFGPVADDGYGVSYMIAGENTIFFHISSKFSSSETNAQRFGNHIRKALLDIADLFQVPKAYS

[5] = target: T2, Carnitine O-palmitoyltransferase 1, liver isoform (Rattus norvegicus, UniProt P32198); test: (§1) SUPPLEMENTARY: Inhibition of Carnitine palmitoyltransferase 1, liver isoform
T2 sequence (P32198 whole entry): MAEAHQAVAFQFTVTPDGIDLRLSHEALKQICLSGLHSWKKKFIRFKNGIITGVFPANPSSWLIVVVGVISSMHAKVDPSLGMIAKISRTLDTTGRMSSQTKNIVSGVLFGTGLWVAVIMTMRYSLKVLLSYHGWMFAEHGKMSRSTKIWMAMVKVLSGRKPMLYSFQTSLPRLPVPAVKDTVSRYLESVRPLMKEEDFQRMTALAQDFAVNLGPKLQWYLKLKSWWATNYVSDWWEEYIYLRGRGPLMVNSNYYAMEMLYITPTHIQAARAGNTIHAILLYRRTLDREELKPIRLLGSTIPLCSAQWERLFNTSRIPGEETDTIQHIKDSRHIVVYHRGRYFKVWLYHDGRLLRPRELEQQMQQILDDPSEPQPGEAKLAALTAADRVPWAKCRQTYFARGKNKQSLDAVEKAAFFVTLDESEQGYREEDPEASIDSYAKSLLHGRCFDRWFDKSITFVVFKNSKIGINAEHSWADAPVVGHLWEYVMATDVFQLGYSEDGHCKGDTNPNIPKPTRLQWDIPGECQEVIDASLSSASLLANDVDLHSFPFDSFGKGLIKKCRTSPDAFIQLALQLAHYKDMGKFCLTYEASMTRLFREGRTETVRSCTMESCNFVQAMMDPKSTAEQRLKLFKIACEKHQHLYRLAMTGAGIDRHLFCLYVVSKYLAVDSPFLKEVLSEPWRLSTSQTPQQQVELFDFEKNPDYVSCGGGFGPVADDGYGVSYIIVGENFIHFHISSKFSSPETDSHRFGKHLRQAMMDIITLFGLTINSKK

[6] = target: T3, Carnitine O-palmitoyltransferase 2, mitochondrial (Rattus norvegicus, UniProt P18886); test: (§2) SUPPLEMENTARY: Inhibition of Carnitine palmitoyltransferase 2
T3 sequence (P18886 whole entry): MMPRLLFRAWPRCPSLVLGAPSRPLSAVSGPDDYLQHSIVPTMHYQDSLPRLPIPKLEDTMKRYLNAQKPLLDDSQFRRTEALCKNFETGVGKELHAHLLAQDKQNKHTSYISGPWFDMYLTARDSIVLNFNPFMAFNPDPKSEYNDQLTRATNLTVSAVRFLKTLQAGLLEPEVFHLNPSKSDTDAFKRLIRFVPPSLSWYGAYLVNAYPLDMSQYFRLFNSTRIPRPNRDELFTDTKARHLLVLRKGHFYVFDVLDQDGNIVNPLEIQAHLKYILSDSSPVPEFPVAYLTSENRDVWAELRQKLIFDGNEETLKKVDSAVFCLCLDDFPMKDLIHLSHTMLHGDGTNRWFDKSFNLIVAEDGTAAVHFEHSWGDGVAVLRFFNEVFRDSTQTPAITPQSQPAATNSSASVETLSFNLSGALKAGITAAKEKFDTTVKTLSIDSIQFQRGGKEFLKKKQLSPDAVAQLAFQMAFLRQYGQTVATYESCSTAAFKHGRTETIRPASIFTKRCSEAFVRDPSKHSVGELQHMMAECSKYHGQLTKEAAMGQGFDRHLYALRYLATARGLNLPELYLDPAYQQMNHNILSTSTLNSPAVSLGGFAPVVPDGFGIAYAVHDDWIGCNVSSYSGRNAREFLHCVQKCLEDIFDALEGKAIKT

[7] = target: T4, Carnitine O-palmitoyltransferase 2, mitochondrial (Homo sapiens, UniProt P23786); test: as §2
T4 sequence (P23786 whole entry): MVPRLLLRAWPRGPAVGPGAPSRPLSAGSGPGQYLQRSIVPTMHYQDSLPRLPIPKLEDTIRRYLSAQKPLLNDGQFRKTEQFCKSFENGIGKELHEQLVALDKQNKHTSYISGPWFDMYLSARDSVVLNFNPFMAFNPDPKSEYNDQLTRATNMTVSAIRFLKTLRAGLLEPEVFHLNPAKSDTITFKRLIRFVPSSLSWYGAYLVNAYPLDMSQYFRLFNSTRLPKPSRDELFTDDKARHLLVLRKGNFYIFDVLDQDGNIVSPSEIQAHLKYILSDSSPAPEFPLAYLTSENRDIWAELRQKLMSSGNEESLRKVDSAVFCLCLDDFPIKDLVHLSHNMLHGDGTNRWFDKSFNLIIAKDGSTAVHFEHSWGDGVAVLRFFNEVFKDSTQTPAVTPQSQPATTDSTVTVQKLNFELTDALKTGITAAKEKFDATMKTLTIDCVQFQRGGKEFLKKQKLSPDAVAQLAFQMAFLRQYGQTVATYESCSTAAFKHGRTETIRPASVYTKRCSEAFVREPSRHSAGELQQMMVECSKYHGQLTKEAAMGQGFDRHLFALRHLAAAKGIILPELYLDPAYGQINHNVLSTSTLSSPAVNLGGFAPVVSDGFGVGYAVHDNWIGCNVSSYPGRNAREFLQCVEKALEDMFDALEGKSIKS

[8] = target: T5, Carnitine O-palmitoyltransferase 1, liver isoform (Homo sapiens, UniProt P50416); test: as §1
T5 sequence (P50416 whole entry): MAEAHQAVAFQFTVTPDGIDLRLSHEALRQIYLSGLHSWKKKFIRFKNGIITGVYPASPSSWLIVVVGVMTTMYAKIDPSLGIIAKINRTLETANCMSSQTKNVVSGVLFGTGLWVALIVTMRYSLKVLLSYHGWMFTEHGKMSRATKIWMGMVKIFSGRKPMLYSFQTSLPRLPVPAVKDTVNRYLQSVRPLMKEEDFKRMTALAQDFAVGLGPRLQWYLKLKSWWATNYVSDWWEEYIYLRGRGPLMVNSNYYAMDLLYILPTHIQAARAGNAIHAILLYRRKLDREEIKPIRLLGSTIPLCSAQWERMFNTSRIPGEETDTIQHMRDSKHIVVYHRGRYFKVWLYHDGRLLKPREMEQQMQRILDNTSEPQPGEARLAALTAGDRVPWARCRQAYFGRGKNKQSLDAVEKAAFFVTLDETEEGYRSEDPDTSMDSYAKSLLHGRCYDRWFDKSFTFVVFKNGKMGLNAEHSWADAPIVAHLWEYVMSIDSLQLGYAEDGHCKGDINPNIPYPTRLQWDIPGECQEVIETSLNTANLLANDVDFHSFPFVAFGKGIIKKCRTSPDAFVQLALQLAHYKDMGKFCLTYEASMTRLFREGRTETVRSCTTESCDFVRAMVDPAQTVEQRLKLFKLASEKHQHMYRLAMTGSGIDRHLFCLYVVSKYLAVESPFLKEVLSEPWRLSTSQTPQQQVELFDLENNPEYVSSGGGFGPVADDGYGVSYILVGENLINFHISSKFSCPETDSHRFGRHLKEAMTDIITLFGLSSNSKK

Compound	Papp [1] [×10⁻⁶ cm/s]	logD [2]	solubility kinetic [3] [µg/mL]	pIC50 [4]	pIC50 [5]	pIC50 [6]	pIC50 [7]	pIC50 [8]
O=C(COc1ccccc1)N1CCCC[C@@H]1c1nc(-c2ccccn2)cs1	9.04	3.37	24 (≈ 63.2 µM)	< 4.00	6.89	–	–	–
COc1ccc(Cl)cc1S(=O)(=O)N1CCc2ccc(C(=O)Nc3ccc(C(=O)O)c(F)c3)cc21	1.67	0.38	26 (≈ 51.5 µM)	6.00	7.18	5.31	5.86	–
COc1ccc(Cl)cc1S(=O)(=O)N1COc2ccc(C(=O)Nc3ccc(C(=O)O)c(F)c3)cc21	1.92	0.35	30 (≈ 59.2 µM)	5.68	7.02	4.69	5.46	–
O=C(O)Cc1ccc(NC(=O)c2ccc3c(c2)N(S(=O)(=O)c2cccc(Cl)c2)CC3)cc1	3.65	0.48	20 (≈ 42.5 µM)	5.35	7.10	< 4.00	< 4.00	–
COc1ccc(Cl)cc1S(=O)(=O)N1CCCc2ccc(Oc3ccc(CC(=O)O)cc3)cc21	0.77	1.79	–	6.84	–	< 4.00	< 4.00	6.26
O=C(COc1ccccc1)N1CCCC[C@@H]1c1nc(-c2ccccc2)cs1	1.48	3.8	< 1	< 4.00	6.51	< 4.00	< 4.00	–
O=C(O)c1ccc(-c2csc([C@H]3CCCCN3C(=O)COc3ccccc3)n2)cc1	5.18	1.09	> 563	4.54	6.30	4.38	4.98	–
O=C(O)c1cccc(-c2csc([C@H]3CCCCN3C(=O)COc3ccccc3)n2)c1	5.06	1.06	344 (≈ 814 µM)	< 4.00	6.80	4.10	4.50	–
O=C(COc1ccccc1)N1CCCC[C@@H]1c1nc(-c2cccnc2)cs1	3.8	3.15	37 (≈ 97.5 µM)	4.15	6.67	4.48	4.78	–
O=C(COc1ccccc1)N1CCCC[C@@H]1c1nc(-c2ccncc2)cs1	3.84	2.95	39 (≈ 103 µM)	< 4.00	6.58	4.50	5.08	–
COc1ccc(Cl)cc1S(=O)(=O)N1CCc2c(C)cc(C(=O)Nc3ccc(CC(=O)O)cc3)cc21	3.07	0.62	37 (≈ 71.8 µM)	6.35	6.62	< 4.00	4.01	–
O=C(O)c1cccc(-c2nc([C@H]3CCCCN3C(=O)COc3ccccc3)cs2)c1	2.35	0.92	> 511	4.02	6.28	< 4.00	4.64	–
